Test results from PubChem BioAssay (NCI).
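Step 1: Grow cells in 96-well plates. Step 2: Expose to compound for 48 hours at 5 concentrations. Step 3: Interpolate endpoints linearly; if unreached, use highest concentration. GI50 is the concentration that inhibits growth by half. The concentration for full growth arrest is given as TGI.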

Key:
Test in all cases: DTP human tumour cell line panel, 48 h
PC-3 prostate = test system: PC-3 prostate
UO-31 renal = test system: UO-31 renal
BT-549 breast = test system: BT-549 breast
NCI/ADR-RES ovarian = test system: NCI/ADR-RES ovarian
SF-539 CNS = test system: SF-539 CNS
NCI-H460 lung = test system: NCI-H460 lung
HS 578T breast = test system: HS 578T breast
SK-OV-3 ovarian = test system: SK-OV-3 ovarian
SF-268 CNS = test system: SF-268 CNS
HOP-92 NSCLC = test system: HOP-92 NSCLC
UACC-257 melanoma = test system: UACC-257 melanoma
A498 renal = test system: A498 renal
SF-295 CNS = test system: SF-295 CNS
LOX IMVI melanoma = test system: LOX IMVI melanoma
SK-MEL-28 melanoma = test system: SK-MEL-28 melanoma
RXF 393 renal = test system: RXF 393 renal
MDA-MB-231 breast = test system: MDA-MB-231 breast
SN12C renal = test system: SN12C renal
SK-MEL-5 melanoma = test system: SK-MEL-5 melanoma
OVCAR-5 ovarian = test system: OVCAR-5 ovarian
NCI-H23 lung = test system: NCI-H23 lung
SNB-75 CNS = test system: SNB-75 CNS
MALME-3M melanoma = test system: MALME-3M melanoma
M14 melanoma = test system: M14 melanoma
MDA-MB-435 = test system: MDA-MB-435
TK-10 renal = test system: TK-10 renal
SK-MEL-2 melanoma = test system: SK-MEL-2 melanoma
UACC-62 melanoma = test system: UACC-62 melanoma
ACHN renal = test system: ACHN renal
EKVX NSCLC = test system: EKVX NSCLC
OVCAR-3 ovarian = test system: OVCAR-3 ovarian
DU-145 prostate = test system: DU-145 prostate
CAKI-1 renal = test system: CAKI-1 renal
HL-60(TB) leukemia = test system: HL-60(TB) leukemia

CC1=CC[C@@H]2CC[C@]3(C)[C@H](CC[C@@H]4[C@@]5(C)CCCNC(C)(C)[C@@H]5CC[C@]43C)[C@H]2[C@@H]1C
GI50 (PC-3 prostate): 1580 nM | TGI (PC-3 prostate): 3020 nM | GI50 (UO-31 renal): 1470 nM | TGI (UO-31 renal): 2820 nM | GI50 (BT-549 breast): 1660 nM | TGI (BT-549 breast): 3140 nM | GI50 (NCI/ADR-RES ovarian): 1840 nM | TGI (NCI/ADR-RES ovarian): 3520 nM | GI50 (SF-539 CNS): 1690 nM | TGI (SF-539 CNS): 3130 nM | GI50 (NCI-H460 lung): 1480 nM | TGI (NCI-H460 lung): 3090 nM | GI50 (HS 578T breast): 1790 nM | TGI (HS 578T breast): 4040 nM | GI50 (SK-OV-3 ovarian): 1890 nM | TGI (SK-OV-3 ovarian): 3500 nM | GI50 (SF-268 CNS): 1970 nM | TGI (SF-268 CNS): 3710 nM | GI50 (HOP-92 NSCLC): 1390 nM | TGI (HOP-92 NSCLC): 2770 nM | GI50 (UACC-257 melanoma): 1860 nM | TGI (UACC-257 melanoma): 3630 nM | GI50 (A498 renal): 1870 nM | TGI (A498 renal): 3600 nM | GI50 (SF-295 CNS): 1870 nM | TGI (SF-295 CNS): 3420 nM | GI50 (LOX IMVI melanoma): 1660 nM | TGI (LOX IMVI melanoma): 3010 nM | GI50 (SK-MEL-28 melanoma): 1810 nM | TGI (SK-MEL-28 melanoma): 3320 nM | GI50 (RXF 393 renal): 1610 nM | TGI (RXF 393 renal): 3100 nM | GI50 (MDA-MB-231 breast): 1800 nM | TGI (MDA-MB-231 breast): 3470 nM | GI50 (SN12C renal): 1830 nM | TGI (SN12C renal): 3440 nM | GI50 (SK-MEL-5 melanoma): 1700 nM | TGI (SK-MEL-5 melanoma): 3080 nM | GI50 (OVCAR-5 ovarian): 1670 nM | TGI (OVCAR-5 ovarian): 3070 nM | GI50 (NCI-H23 lung): 1780 nM | TGI (NCI-H23 lung): 3370 nM | GI50 (SNB-75 CNS): 1980 nM | TGI (SNB-75 CNS): 3840 nM | GI50 (MALME-3M melanoma): 1770 nM | TGI (MALME-3M melanoma): 3480 nM | GI50 (M14 melanoma): 1730 nM | TGI (M14 melanoma): 3260 nM | GI50 (MDA-MB-435): 1850 nM | TGI (MDA-MB-435): 3280 nM | GI50 (TK-10 renal): 1810 nM | TGI (TK-10 renal): 3370 nM | GI50 (SK-MEL-2 melanoma): 1810 nM | TGI (SK-MEL-2 melanoma): 3480 nM | GI50 (UACC-62 melanoma): 1770 nM | TGI (UACC-62 melanoma): 3220 nM | GI50 (ACHN renal): 1760 nM | TGI (ACHN renal): 3140 nM | GI50 (EKVX NSCLC): 1740 nM | TGI (EKVX NSCLC): 3380 nM | GI50 (OVCAR-3 ovarian): 1910 nM | TGI (OVCAR-3 ovarian): 3370 nM | GI50 (DU-145 prostate): 1980 nM | TGI (DU-145 prostate): 3550 nM | GI50 (CAKI-1 renal): 1690 nM | TGI (CAKI-1 renal): 3050 nM | GI50 (HL-60(TB) leukemia): 1700 nM | TGI (HL-60(TB) leukemia): 3500 nM
